Assay results reported in the METLIN SMRT retention time set (Domingo-Almenara et al. 2019).

Assay: gradient 5% acetonitrile 3 min, to 50% in 2 min, to 85% in 15 min, held 3 min, 100 µL/min
Settings: column: Zorbax Extend-C18 2.1 x 50 mm; eluents: water / acetonitrile, 0.1% formic acid
Procedure, shortened: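 The mobile phases were water and acetonitrile, each with 0.1% formic acid, pumped at 100 μL/min through a Zorbax Extend-C18 column (2.1 × 50 mm, 1.8 μm). Pure standards were injected as mixtures of ~100 molecules and detected by a quadrupole time-of-flight mass spectrometer in positive and negative ionization mode. Retention time came from computationally picked adduct peaks, each inspected by hand.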

RP-LC retention time [s]	SMILES
692	COCc1nc2cccnc2n1C1CCN(C(=O)NCCc2ccccc2)CC1
824	NS(=O)(=O)c1ccc(NC(=O)Cc2cn(Cc3ccc(F)cc3)c3ccccc23)cc1
622	COc1ccc(OC)c(-c2ccc(=O)n(Cc3ccccn3)n2)c1
838	CCC(C)(C)NS(=O)(=O)c1cc(-c2nc(C)c(C(=O)N3CCCC3)s2)n(C)c1
632	CC(=O)Nc1ccc2cc3ccc(NC(C)=O)cc3nc2c1
984	COc1cc(NC(=O)C2CCN(c3nccnc3Sc3ccccc3)CC2)cc(OC)c1OC
840	Cn1c(=O)n([C@H]2CCN(S(=O)(=O)c3ccccc3Cl)C2)c2ncccc21
778	Cc1nc2ccccc2c(=O)n1-c1ccc(NC(=O)C2CCN(S(=O)(=O)N3CCCC3)CC2)cc1
676	Cc1[nH]c(C)c(S(=O)(=O)N2CCC(C(=O)NC3CCCCC3)CC2)c1C(=O)N1CCCC1
663	COc1ccc(-c2cc(N3CCN(C(=O)Nc4ccc(OC)cc4OC)CC3)ncn2)cc1
1080	Cc1ccc(-c2cc3c4nnc(SCC(=O)Nc5cc(F)ccc5C)n4ccn3n2)cc1C
675	CC(=O)Nc1ccc(C(=O)NC2CCN(c3cc(-c4ccc(Cl)cc4)[nH]n3)C2)cc1 (stereo unspecified)
942	COc1ccc(C)cc1NC(=O)CCc1cccc2[nH]ccc12
1050	c1ccc(Sc2ncnc3ccccc23)cc1
727	CN1CCCn2cc(S(=O)(=O)Nc3ccc(Cl)cc3F)cc2C1=O
903	CCOC(=O)c1ccc(NC(=O)Cn2c(=O)cc(-c3nc(C)no3)c3ccccc32)cc1
1010	Cc1cccc(Sc2nccnc2N2CCCC(C(=O)N3CCCC3)C2)c1 (stereo unspecified)
642	COc1ccc(NC(=O)Cn2ncc3c(N4CCN(c5ccccn5)CC4)ncnc32)cc1Cl
862	Cc1cc(NC(=O)Cn2nc(C(=O)N3CCOCC3)c3ccccc32)ccc1Br
809	O=C(Cc1csc2nc(-c3ccccc3)cn12)Nc1ccc(F)cc1F
962	Cc1nn2c(CNS(=O)(=O)c3ccc(C)c(Cl)c3)c(-c3ccccc3)nc2s1

RP-LC retention time [s]	SMILES
839	Cn1cccc1C(=O)N1CCN(C(=O)c2nnn3c2COC(c2ccc(Cl)cc2)C3)CC1 (stereo unspecified)
807	CC(C)NC(=O)c1ccc(OCC2CCCN2C(=O)Cc2cccs2)cc1 (stereo unspecified)
699	COC(=O)c1cc2c([nH]c1=O)CC(c1ccc(OC)cc1OC)CC2=O (stereo unspecified)
1200	Cc1ccc(C(=O)N2CCCC2c2nc(-c3cccc(Cl)c3)no2)c(C)c1 (stereo unspecified)
1030	Cc1cccc(-c2noc(Cn3c(=O)n(-c4ccc(F)cc4)c(=O)c4sccc43)n2)c1
879	COC(=O)C1=CN(c2cccc(Cl)c2)c2ccccc2S1(=O)=O
650	Cc1nn(-c2ccc(F)cc2)c(-n2cccc2)c1C(=O)N1CCN(c2ccccn2)CC1
669	CC(C)S(=O)(=O)c1ccc(CC(=O)N2CCC(c3nnc(-c4ccco4)o3)CC2)cc1
566	NC(=O)C1CCC(=O)N1C1CCN(C(=O)CCC2CCCC2)CC1 (stereo unspecified)
655	O=C(Nc1ccccc1F)c1cc(C2CC2)on1
604	CCc1nc2cc(N3CCCC(C(=O)NCCN(C)C)C3)cnc2nc1CC (stereo unspecified)
887	COCCCNC(=O)C1(C)Cn2nc(-c3ccccc3)cc2C(=O)N1Cc1cccc(OC)c1 (stereo unspecified)
760	Cc1ccc(C)c(NC(=O)C2CCN(C(=O)C3Sc4ccccc4NC3=O)CC2)c1 (stereo unspecified)
823	COC(=O)c1c(NCCc2cccs2)c2cccc(Cl)c2[nH]c1=O
642	COc1ccc(CNC(=O)N2CCC(c3cc(N)on3)CC2)cc1
822	O=C(NCc1ccc(F)cc1Cl)C1CCN(C(=O)c2cc3ccsc3[nH]2)CC1
776	CCn1c(=O)c2ccn(CC(=O)N3CCCc4ccccc43)c2n(CC)c1=O
960	CCc1noc(-c2nnn3c2COC(c2ccc(F)cc2)C3)n1 (stereo unspecified)
941	O=C(CCN1C(=O)c2ccccc2S1(=O)=O)Nc1nc(-c2ccccc2)cs1
844	COc1cc(C)c(C)cc1S(=O)(=O)Nc1ccc2c(c1)N(S(C)(=O)=O)CCC2
562	CN(C)c1ccc(CNC(=O)C2CCN(c3cnc4nccnc4c3)CC2)cc1

RP-LC retention time [s]	SMILES
734	COc1cccc(-c2nnc(NC(=O)c3ccccc3Br)o2)c1
960	O=C(Cn1cccc(-c2nc(-c3ccc(F)cc3)no2)c1=O)Nc1ccc(F)c(Cl)c1
767	O=C(Nc1ccc2c(c1)CN(C(=O)Cn1c(=O)oc3ccccc31)CCO2)C1CC1
668	O=C(c1csc(N2CCN(c3ccccc3)CC2)n1)N1CCC(N2CCCCC2)CC1
788	CCCCS(=O)(=O)N1CC(c2noc(-c3cccnc3)n2)C2(CCOCC2)C1 (stereo unspecified)
904	Cc1ccc(F)c(NC(=O)c2cnc3c(c2)c(=O)n(C)c(=O)n3-c2ccccc2)c1
767	O=C(CSc1nnc2c3sc(N4CCCC4)nc3ncn12)NC1CCCCC1
688	COc1cccc(CNC(=O)N2CCC(N3CCN(Cc4cccc(F)c4)C(=O)C3=O)CC2)c1
785	COc1ccc(C(CC(=O)N2CCCCCC2)N2Cc3ccccc3C2=O)cc1OC (stereo unspecified)
635	CCN(CC(=O)N1CCC(C(N)=O)CC1)S(=O)(=O)c1ccc(F)cc1
868	CC(C)CCNC(=O)CC1Sc2ncccc2N(CC(C)C)C1=O (stereo unspecified)
1200	COc1cccc(-n2c(=O)c(C(=O)NCCc3ccccc3)c(O)c3cccnc32)c1
707	O=C(CCSCc1cnn(-c2ccccc2)c1-n1cccc1)N1CCN(c2ccccn2)CC1
712	Cc1cccc(NC(=O)Cn2cnc3nc(N4CCCC(C(=O)NC(C)C)C4)sc3c2=O)c1C (stereo unspecified)
965	COc1c(C(=O)NC2CC2)sc2ccc(Cl)cc12
862	COc1ccccc1CNC(=O)c1ccc2c(c1)N(C)C(=O)c1ccccc1O2
642	CC1CCCN(CCCNC(=O)c2nnc(-c3ccc(S(=O)(=O)N4CCCC4)cc3)o2)C1 (stereo unspecified)
607	Cc1cc(NC(=O)C2CCN(C(=O)CSc3nnnn3C)CC2)no1
1260	O=C(Nc1cccc(Br)c1)C1CCCN(c2ncc(-c3cccc(F)c3)cn2)C1 (stereo unspecified)
693	CCC(C)OC(=O)C1=C(C)NC(=O)NC1c1ccc(OC)c(O)c1 (stereo unspecified)
1100	Cc1nn(C(C)C(=O)Nc2ccc(F)cc2F)c(=O)c2c(-n3cccc3)n(-c3ccccc3)nc12 (stereo unspecified)

RP-LC retention time [s]	SMILES
598	O=C(C1CC(=O)N(c2n[nH]c3cccc(F)c23)C1)N1CCN(Cc2ccccc2)CC1 (stereo unspecified)
839	Cc1ccccc1OCc1nc(-c2ccc3ncn(C(C)C)c3c2)no1
903	COc1ccc(OC)c(NC(=O)C2c3ccccc3C(=O)N3CCc4ccccc4C23)c1 (stereo unspecified)
568	O=C(NC1CC1)c1ccccc1OC1CN(C2CCC2)C1
752	O=C(CN1CCN(Cc2ccccc2)C(=O)C1=O)N1CCN(c2ccccc2F)CC1
827	COc1cc(-c2noc(-c3cn(C)c4ccc(C)cc4c3=O)n2)cc(OC)c1OC
791	COc1ccc(C2C(C(=O)Nc3cccc(C)n3)c3ccccc3C(=O)N2C)cc1 (stereo unspecified)
729	CCOC(=O)c1[nH]c(C)c(C(=O)N2CCC(CC(=O)N(C)Cc3ccco3)CC2)c1C
790	CCOc1cccc2c1OC1(C)CC2NC(=O)N1c1cccc(C(=O)NCc2cccs2)c1 (stereo unspecified)
773	O=C(Nc1ccc2c(c1)OCCO2)N1CCC(N2CCN(Cc3ccc(F)cc3)C2=O)CC1
621	O=C(NCCCN1CCCCC1)c1ccc2c(c1)nc1n2CCN(C2CCCCC2)C1=O
939	Cc1csc(-c2ccc(CNC(=O)c3cc(F)cc(F)c3)cc2)n1
655	COc1ccc(CNC(=O)Nc2cccc(-c3ccc(N4CCOCC4)nn3)c2)cc1
807	Cn1nc(-c2ccccc2)nc1C1CN(C(=O)Nc2ccccc2C(F)(F)F)C1
965	CCCOCCOC(=O)C1=C(C)NC2=C(C(=O)C(C(=O)OC)C(C)C2)C1c1cccc(F)c1 (stereo unspecified)
662	CCn1nc(C)c(CCNC(=O)c2ccc3nc(C(C)C)oc3c2)c1C
739	COCc1nncn1C1CCN(S(=O)(=O)c2ccc(F)c(Cl)c2)CC1
821	Cc1ccc(-n2c(N3CCC(C(=O)NCC(C)C)CC3)nc3ccsc3c2=O)cc1
752	COc1ccc(C)cc1NC(=O)Cn1nc2cc(-c3ccccc3)nc(C)n2c1=O
882	Cn1c(=O)n(C)c2cc(S(=O)(=O)c3ccc(F)cc3)c(NC(=O)c3ccccc3F)cc21
1260	COc1ccc(-c2noc(-c3nnn4c3COC(c3ccc(C)cc3C)C4)n2)cc1F (stereo unspecified)

SMILES	RP-LC retention time [s]
NC(=O)c1ccc(OCC(O)CN2CC=C(c3ccc(F)cc3)CC2)cc1 (stereo unspecified)	512
Cn1nc(C(=O)NCC2CCOCC2)c2ccccc21	697
